Assay results as given in ChEMBL document CHEMBL2346657, “Synthesis of novel 2-amino-4-(5'-substituted 2'-phenyl-1H-indol-3'-yl)-6-aryl-4H-pyran-3-carbonitrile derivatives as antimicrobial and antioxidant agents” (2013).
Activity calls are given as the source filed them. How the calls were made is not given here.

What was measured:
Type in all cases: functional
Aspergillus flavus [1] = experiment: Antimicrobial activity against Aspergillus flavus MTCC 1973 at 500 ug/ml after 72 hrs by cup plate method; conditions: MTCC 1973, 72 h, read-out: IZ
Pseudomonas aeruginosa [2] = experiment: Antimicrobial activity against Pseudomonas aeruginosa MTCC 1688 at 500 ug/ml after 24 hrs by cup plate method; conditions: MTCC 1688, 24 h, read-out: IZ
Staphylococcus aureus [3] = experiment: Antimicrobial activity against Staphylococcus aureus ATCC 29513 at 1000 ug/ml after 24 hrs by cup plate method; conditions: ATCC 29513, 24 h, read-out: IZ
Aspergillus terreus [4] = experiment: Antimicrobial activity against Aspergillus terreus MTCC 1782 at 750 ug/ml after 72 hrs by cup plate method; conditions: MTCC 1782, 72 h, read-out: IZ
Klebsiella pneumoniae [5] = experiment: Antimicrobial activity against Klebsiella pneumoniae NCTC 13368 at 500 ug/ml after 24 hrs by cup plate method; conditions: NCTC 13368, 24 h, read-out: IZ
[6] = Antioxidant activity assessed as metal chelating activity by measuring inhibition of ferrozine-Fe2+ complex formation at 25 to 100 ug/ml
Klebsiella pneumoniae [7] = experiment: Antimicrobial activity against Klebsiella pneumoniae NCTC 13368 at 750 ug/ml after 24 hrs by cup plate method; conditions: NCTC 13368, 24 h, read-out: IZ
Klebsiella pneumoniae [8] = experiment: Antimicrobial activity against Klebsiella pneumoniae NCTC 13368 at 1000 ug/ml after 24 hrs by cup plate method; conditions: NCTC 13368, 24 h, read-out: IZ
Aspergillus flavus [9] = experiment: Antimicrobial activity against Aspergillus flavus MTCC 1973 at 1000 ug/ml after 72 hrs by cup plate method; conditions: MTCC 1973, 72 h, read-out: IZ
Escherichia coli [10] = experiment: Antimicrobial activity against Escherichia coli MTCC 723 at 1000 ug/ml after 24 hrs by cup plate method; conditions: MTCC 723, 24 h, read-out: IZ
Aspergillus flavus [11] = experiment: Antimicrobial activity against Aspergillus flavus MTCC 1973 at 750 ug/ml after 72 hrs by cup plate method; conditions: MTCC 1973, 72 h, read-out: IZ
Aspergillus niger [12] = experiment: Antimicrobial activity against Aspergillus niger MTCC 281 at 500 ug/ml after 72 hrs by cup plate method; conditions: MTCC 281, 72 h, read-out: IZ
Aspergillus niger [13] = experiment: Antimicrobial activity against Aspergillus niger MTCC 281 at 1000 ug/ml after 72 hrs by cup plate method; conditions: MTCC 281, 72 h, read-out: IZ
Aspergillus oryzae [14] = experiment: Antimicrobial activity against Aspergillus oryzae MTCC 3567 at 750 ug/ml after 72 hrs by cup plate method; conditions: MTCC 3567, 72 h, read-out: IZ
Escherichia coli [15] = experiment: Antimicrobial activity against Escherichia coli MTCC 723 at 500 ug/ml after 24 hrs by cup plate method; conditions: MTCC 723, 24 h, read-out: IZ
Pseudomonas aeruginosa [16] = experiment: Antimicrobial activity against Pseudomonas aeruginosa MTCC 1688 at 750 ug/ml after 24 hrs by cup plate method; conditions: MTCC 1688, 24 h, read-out: IZ
Aspergillus oryzae [17] = experiment: Antimicrobial activity against Aspergillus oryzae MTCC 3567 at 1000 ug/ml after 72 hrs by cup plate method; conditions: MTCC 3567, 72 h, read-out: IZ
Pseudomonas aeruginosa [18] = experiment: Antimicrobial activity against Pseudomonas aeruginosa MTCC 1688 at 1000 ug/ml after 24 hrs by cup plate method; conditions: MTCC 1688, 24 h, read-out: IZ
Aspergillus terreus [19] = experiment: Antimicrobial activity against Aspergillus terreus MTCC 1782 at 500 ug/ml after 72 hrs by cup plate method; conditions: MTCC 1782, 72 h, read-out: IZ
Aspergillus oryzae [20] = experiment: Antimicrobial activity against Aspergillus oryzae MTCC 3567 at 500 ug/ml after 72 hrs by cup plate method; conditions: MTCC 3567, 72 h, read-out: IZ
Staphylococcus aureus [21] = experiment: Antimicrobial activity against Staphylococcus aureus ATCC 29513 at 750 ug/ml after 24 hrs by cup plate method; conditions: ATCC 29513, 24 h, read-out: IZ
Aspergillus terreus [22] = experiment: Antimicrobial activity against Aspergillus terreus MTCC 1782 at 1000 ug/ml after 72 hrs by cup plate method; conditions: MTCC 1782, 72 h, read-out: IZ
Escherichia coli [23] = experiment: Antimicrobial activity against Escherichia coli MTCC 723 at 750 ug/ml after 24 hrs by cup plate method; conditions: MTCC 723, 24 h, read-out: IZ
Aspergillus niger [24] = experiment: Antimicrobial activity against Aspergillus niger MTCC 281 at 750 ug/ml after 72 hrs by cup plate method; conditions: MTCC 281, 72 h, read-out: IZ
Staphylococcus aureus [25] = experiment: Antimicrobial activity against Staphylococcus aureus ATCC 29513 at 500 ug/ml after 24 hrs by cup plate method; conditions: ATCC 29513, 24 h, read-out: IZ

SMILES | zone of inhibition at 500 µg/mL (Aspergillus flavus [1]) [mm] | zone of inhibition at 500 µg/mL (Pseudomonas aeruginosa [2]) [mm] | zone of inhibition at 1000 µg/mL (Staphylococcus aureus [3]) [mm] | zone of inhibition at 750 µg/mL (Aspergillus terreus [4]) [mm] | zone of inhibition at 500 µg/mL (Klebsiella pneumoniae [5]) [mm] | Activity [6] | zone of inhibition at 750 µg/mL (Klebsiella pneumoniae [7]) [mm] | zone of inhibition at 1000 µg/mL (Klebsiella pneumoniae [8]) [mm] | zone of inhibition at 1000 µg/mL (Aspergillus flavus [9]) [mm] | zone of inhibition at 1000 µg/mL (Escherichia coli [10]) [mm] | zone of inhibition at 750 µg/mL (Aspergillus flavus [11]) [mm] | zone of inhibition at 500 µg/mL (Aspergillus niger [12]) [mm] | zone of inhibition at 1000 µg/mL (Aspergillus niger [13]) [mm] | zone of inhibition at 750 µg/mL (Aspergillus oryzae [14]) [mm] | zone of inhibition at 500 µg/mL (Escherichia coli [15]) [mm] | zone of inhibition at 750 µg/mL (Pseudomonas aeruginosa [16]) [mm] | zone of inhibition at 1000 µg/mL (Aspergillus oryzae [17]) [mm] | zone of inhibition at 1000 µg/mL (Pseudomonas aeruginosa [18]) [mm] | zone of inhibition at 500 µg/mL (Aspergillus terreus [19]) [mm] | zone of inhibition at 500 µg/mL (Aspergillus oryzae [20]) [mm] | further results
Cc1ccc(C2=CC(c3c(-c4ccccc4)[nH]c4ccc(Cl)cc34)c3c(N)nc(=O)[nH]c3O2)cc1 (stereo not given) | 12 | 10 | 0 | 8 | 8 | Active | 8 | 8 | 13 | 10 | 12 | 10 | 10 | 13 | 8 | 9 | 13 | 8 | 8 | 12 | zone of inhibition at 750 µg/mL (Staphylococcus aureus [21]): 0 mm; zone of inhibition at 1000 µg/mL (Aspergillus terreus [22]): 8 mm; zone of inhibition at 750 µg/mL (Escherichia coli [23]): 8 mm; zone of inhibition at 750 µg/mL (Aspergillus niger [24]): 10 mm; zone of inhibition at 500 µg/mL (Staphylococcus aureus [25]): 0 mm
Cc1ccc2[nH]c(-c3ccccc3)c(C3C=C(c4ccc(Cl)cc4)OC(N)=C3C#N)c2c1 (stereo not given) | 10 | 6 | 2 | 13 | 9 | Active | 9 | 8 | 8 | 10 | 10 | 10 | 10 | 10 | 10 | 5 | 10 | 2 | 12 | 10 | zone of inhibition at 750 µg/mL (Staphylococcus aureus [21]): 5 mm; zone of inhibition at 1000 µg/mL (Aspergillus terreus [22]): 13 mm; zone of inhibition at 750 µg/mL (Escherichia coli [23]): 10 mm; zone of inhibition at 750 µg/mL (Aspergillus niger [24]): 10 mm; zone of inhibition at 500 µg/mL (Staphylococcus aureus [25]): 6 mm
Cc1ccc(C2=CC(c3c(-c4ccccc4)[nH]c4ccccc34)c3c(N)n[nH]c3O2)cc1 (stereo not given) | 3 | 8 | 3 | 4 | 4 | Active | 3 | 2 | 8 | 8 | 2 | 9 | 5 | 7 | 8 | 6 | 7 | 6 | 4 | 7 | zone of inhibition at 750 µg/mL (Staphylococcus aureus [21]): 3 mm; zone of inhibition at 1000 µg/mL (Aspergillus terreus [22]): 4 mm; zone of inhibition at 750 µg/mL (Escherichia coli [23]): 8 mm; zone of inhibition at 750 µg/mL (Aspergillus niger [24]): 9 mm; zone of inhibition at 500 µg/mL (Staphylococcus aureus [25]): 5 mm
Cc1ccc2[nH]c(-c3ccccc3)c(C3C=C(c4ccc(Cl)cc4)Oc4[nH]c(=O)nc(N)c43)c2c1 (stereo not given) | 8 | 0 | 7 | 6 | 4 | Active | 3 | 3 | 4 | 3 | 5 | 5 | 6 | 8 | 10 | 0 | 8 | 0 | 7 | 8 | zone of inhibition at 750 µg/mL (Staphylococcus aureus [21]): 5 mm; zone of inhibition at 1000 µg/mL (Aspergillus terreus [22]): 5 mm; zone of inhibition at 750 µg/mL (Escherichia coli [23]): 8 mm; zone of inhibition at 750 µg/mL (Aspergillus niger [24]): 4 mm; zone of inhibition at 500 µg/mL (Staphylococcus aureus [25]): 5 mm
Cc1ccc2[nH]c(-c3ccccc3)c(C3C=C(c4ccccc4)Oc4[nH]nc(N)c43)c2c1 (stereo not given) | 5 | 9 | 5 | 9 | 3 | Active | 3 | 3 | 1 | 3 | 2 | 5 | 3 | 8 | 3 | 8 | 8 | 8 | 9 | 9 | zone of inhibition at 750 µg/mL (Staphylococcus aureus [21]): 5 mm; zone of inhibition at 1000 µg/mL (Aspergillus terreus [22]): 9 mm; zone of inhibition at 750 µg/mL (Escherichia coli [23]): 3 mm; zone of inhibition at 750 µg/mL (Aspergillus niger [24]): 5 mm; zone of inhibition at 500 µg/mL (Staphylococcus aureus [25]): 6 mm
Cc1ccc(C2=CC(c3c(-c4ccccc4)[nH]c4ccc(C)cc34)C(C#N)=C(N)O2)cc1 (stereo not given) | 0 | 10 | 14 | 9 | 9 | Active | 9 | 9 | 0 | 3 | 0 | 0 | 0 | 13 | 8 | 10 | 13 | 8 | 0 | 12 | zone of inhibition at 750 µg/mL (Staphylococcus aureus [21]): 14 mm; zone of inhibition at 1000 µg/mL (Aspergillus terreus [22]): 9 mm; zone of inhibition at 750 µg/mL (Escherichia coli [23]): 4 mm; zone of inhibition at 750 µg/mL (Aspergillus niger [24]): 0 mm; zone of inhibition at 500 µg/mL (Staphylococcus aureus [25]): 14 mm
